Values after ≈ are worked out from the molar mass of the structure shown. Ends that are not written are not given here.
Assays:
[1] = system: human embryonic kidney (HEK293T) cells; settings: 24 h
Experimental: The cells were cultured in high-glucose Dulbecco’s modified Eagle’s medium supplemented with 1% penicillin and streptomycin (antibiotics) and 10% fetal bovine serum and grown at 37 °C in a humidified atmosphere containing 5% CO2.
One day prior to the experiment, 100 μL aliquots of human embryonic kidney (HEK293T) cells, at a concentration of 50,000 cells per mL, were seeded into each well of 96-well plates (5,000 cells per well). Following cell attachment, the HEK293T cells were treated with increasing concentrations of peptides (ranging from 8 to 128 μmol L^−1) and incubated for 24 h. After the exposure period, cytotoxicity was assessed using the 3-(4,5-dimethylthiazol-2-yl)-2,5-diphenyltetrazolium bromide (MTT) assay. Specifically, the MTT reagent was prepared at a concentration of 0.5 mg mL^−1 in phenol red-free medium and used to replace the peptide-containing supernatants (100 μL per well). The plates were then incubated for 4 h at 37 °C in a humidified atmosphere with 5% CO2, facilitating the formation of insoluble formazan crystals. These crystals were subsequently dissolved in 0.04 mol L^−1 hydrochloric acid prepared in anhydrous isopropanol. Absorbance was measured at 570 nm using a spectrophotometer to quantify cell viability. All experiments were conducted in triplicate (three biological replicates).
To evaluate the safety profile of the ATB peptides, we measured their cytotoxicity against human embryonic kidney (HEK293T) cells using a 3-(4,5-dimethylthiazol-2-yl)-2,5-diphenyltetrazolium bromide (MTT) viability assay and determined half-maximal cytotoxic concentrations (CC50). […]
index as the ratio CC50 (HEK293T) / MIC against A. baumannii ATCC 19606.

[2] = system: 20 clinically relevant Gram-negative and Gram-positive bacterial strains; assay: Antibacterial profiling across the panel; assay type: cell-based; settings: in words; 20-strain MIC panel
Text: We first compared the predicted AllTheBacteria (here abbreviated ATB) peptides with antimicrobial peptides curated in widely used databases (see Supp. Note 3, Supp. Figs 10-13). ATB peptides were enriched in basic residues, particularly lysine and arginine, and many also contained hydrophobic or aromatic residues, including leucine, isoleucine, and tryptophan. These features are consistent with electrostatic engagement of bacterial envelopes and potential membrane interaction. From this prioritized pool, we selected 24 peptides (Supp. Table 1) for chemical synthesis and experimental validation. The selected panel included highly cationic low-complexity sequences, mixed hydrophobic–cationic architectures and tryptophan-rich motifs, allowing us to test whether distinct classes of ATB-derived encrypted peptides translate into antibacterial activity. The 24 synthesized peptides were profiled against 20 clinically relevant Gram-negative and Gram-positive bacterial strains, including antibiotic-resistant ones (Fig. 4). Antibacterial activity was most pronounced against Gram-negative species, including Acinetobacter baumannii, Escherichia coli, Enterobacter cloacae, Klebsiella pneumoniae, and Pseudomonas aeruginosa.
Figure 4. […] Bacterial growth was assessed by measuring the optical density at 600 nm in a microplate reader one day post-treatment.

E. coli isolates = settings: strain not named
Experimental: (§1) Figure 4. […] Briefly, 10[5] bacterial cells were incubated with serially diluted peptides (0–64 μmol L^−1) at 37 °C. Bacterial growth was assessed by measuring the optical density at 600 nm in a microplate reader one day post-treatment.

A. baumannii ATCC 19606 [3] = assay: Skin abscess infection mouse model; assay type: in vivo, Acinetobacter baumannii; settings: CD-1 mice; for reduction of bacterial burden relative to untreated controls: single topical dose at 10×MIC
Experimental: (§2) Figure 5. Anti-infective activity of a lead ATB peptide in a murine infection model. […] The limit of detection (LOD) for the CFU quantification is log10 CFU = 2. Bacterial burdens are shown as violin plots with individual data points overlaid; each point represents one animal. The horizontal line within each violin indicates the mean, and violin width reflects the distribution of values within each group. Statistical comparisons were performed separately for each time point using ordinary one-way ANOVA followed by Dunnett’s two-sided multiple comparisons test versus the control group. Exact p-values are shown above the indicated comparisons. (Panel a created in BioRender.)
(§3) The back of six-week-old female CD-1 mice under anesthesia were shaved and injured with a superficial linear skin abrasion made with a needle. An aliquot of A. baumannii ATCC 19606 (1.1×10^6 CFU mL^−1; […]) previously grown in LB medium until 0.5 OD mL^−1 (optical value at 600 nm) and then washed twice with sterile PBS (pH 7.4, 9,391 ģ for 3 min) was added to the scratched area. […] Two- and four-days post-infection, animals were euthanized, and a uniform excision of the scarified skin was excised, homogenized using a bead beater (25 Hz for 20 min), 10-fold serially diluted, and plated on McConkey agar plates for CFU quantification. The experiments were performed using six mice per group. Mice were single-housed to avoid cross-contamination and maintained under a 12-hour light/dark cycle at 22 °C with humidity controlled at 50%. The skin abscess infection mouse model was revised and approved by the University Laboratory Animal Resources (ULAR) from the University of Pennsylvania (Protocol 806763).
In the mouse experiments, all the raw data were log10 transformed and the statistical significance was determined using one-way ANOVA followed by Dunnett’s test. All the p values are shown for each of the groups, all groups were compared to the untreated control group. […] Statistical significance between different groups was calculated using the tests indicated in each figure legend. […]

[4] = Mouse weight monitoring in skin abscess model; assay type: in vivo; settings: CD-1 mice, 4 days total, single topical dose at 10×MIC, in words
Experimental: as §2
as §3, with “Mice were single-housed to avoid cross-contamination and maintained under a 12-hour light/dark cycle at 22 °C with humidity controlled at 50%. The skin abscess infection mouse model was revised and approved by the University Laboratory Animal Resources (ULAR) from the University of Pennsylvania (Protocol 806763).” left out

E. coli AIC222 = assay: microbe, parasite or virus in culture; assay type: cell-based; settings: Escherichia coli, AIC222, 24 h, read-out: Minimal Inhibitory Concentration, E. coli AIC222 - CRE (-)
Experimental: as §1

E. coli AIC221 = assay: MIC, broth microdilution; assay type: cell-based; settings: Escherichia coli, AIC221, 24 h, read-out: Minimal Inhibitory Concentration, E. coli AIC221 (-)
Experimental: Figure 4. Antimicrobial activity of APEX-predicted AllTheBacteria peptides. Heat map displaying the antimicrobial activities (μmol L^−1) of ATB peptides (rows) against 20 clinically relevant pathogens (columns) , including antibiotic-resistant strains. Briefly, 10[5] bacterial cells were incubated with serially diluted peptides (0–64 μmol L^−1) at 37 °C. Bacterial growth was assessed by measuring the optical density at 600 nm in a microplate reader one day post-treatment.

[5] = system: E. faecalis ATCC 700802 (VRE); assay: MIC, broth microdilution; assay type: cell-based; settings: Enterococcus faecalis, 24 h, Fig. 4 heat map, vancomycin-resistant, LB, 0–64 μmol L^−1, 37 °C, one day, OD600, mode of replicates, read-out: Minimal Inhibitory Concentration, E. faecalis ATCC 700802 - VRE (+)
Experimental: as §1

B. subtilis ATCC 23857 = assay: MIC, broth microdilution; assay type: cell-based; settings: Bacillus subtilis, ATCC23857, 24 h, Fig. 4 heat map, LB, 0–64 μmol L^−1, 37 °C, one day, OD600, mode of replicates, read-out: Minimal Inhibitory Concentration, B. subtilis ATCC 23857 (+)
Experimental: as §1

A. baumannii ATCC 19606 [6] = assay: microbe, parasite or virus in culture; settings: Acinetobacter baumannii, ATCC19606, 24 h, read-out: Minimal Inhibitory Concentration, A. baumannii ATCC 19606 (-)
Experimental: as §1

S. enterica ATCC 9150 = assay: microbe, parasite or virus in culture; settings: Salmonella enterica, ATCC9150, 24 h, read-out: Minimal Inhibitory Concentration, S. enterica ATCC 9150 (-)
Experimental: as §1

[7] = system: S. aureus ATCC BAA-1556 (MRSA); assay: microbe, parasite or virus in culture; settings: Staphylococcus aureus, ATCCBAA1556|MRSA, 24 h, read-out: Minimal Inhibitory Concentration, S. aureus ATCC BAA-1556 - MRSA (+)
Experimental: as §1

E. coli ATCC 11775 = assay: microbe, parasite or virus in culture; settings: Escherichia coli, ATCC11775, 24 h, read-out: Minimal Inhibitory Concentration, E. coli ATCC 11775 (-)
Experimental: as §1

K. pneumoniae ATCC 13883 = assay: microbe, parasite or virus in culture; settings: Klebsiella pneumoniae, ATCC13883, 24 h, read-out: Minimal Inhibitory Concentration, K. pneumoniae ATCC 13883 (-)
Experimental: as §1

E. cloacae ATCC 13047 = assay: microbe, parasite or virus in culture; settings: Enterobacter cloacae, ATCC13047, 24 h, read-out: Minimal Inhibitory Concentration, E. cloacae ATCC 13047 (-)
Experimental: as §1

E. coli K-12 BW25113 = assay: microbe, parasite or virus in culture; settings: Escherichia coli, BW25113, 24 h, read-out: Minimal Inhibitory Concentration, E. coli K-12 BW25113 (-)
Experimental: as §1

S. aureus ATCC 12600 = assay: microbe, parasite or virus in culture; settings: Staphylococcus aureus, ATCC12600, 24 h, read-out: Minimal Inhibitory Concentration, S. aureus ATCC 12600 (+)
Experimental: as §1

[8] = system: S. enterica Typhimurium ATCC 700720; assay: microbe, parasite or virus in culture; settings: Salmonella enterica, ATCC700720|TYPHIMURIUM, 24 h, read-out: Minimal Inhibitory Concentration, S. enterica Typhimurium ATCC 700720
Experimental: as §1

E. coli ATCC BAA-3170 = assay: microbe, parasite or virus in culture; settings: Escherichia coli, ATCCBAA3170, 24 h, read-out: Minimal Inhibitory Concentration, E. coli ATCC BAA-3170 (-) - CRE
Experimental: as §1

P. aeruginosa PAO1 = assay: microbe, parasite or virus in culture; settings: Pseudomonas aeruginosa, PAO1, 24 h, read-out: Minimal Inhibitory Concentration, P. aeruginosa PAO1 (-)
Experimental: as §1

[9] = system: K. pneumoniae ATCC BAA-2342; assay: microbe, parasite or virus in culture; settings: Klebsiella pneumoniae, ATCCBAA2342, 24 h, read-out: Minimal Inhibitory Concentration, K. pneumoniae ATCC BAA-2342 (-) - EIRK
Experimental: as §1

[10] = system: A. baumannii ATCC BAA-1605; assay: microbe, parasite or virus in culture; settings: Acinetobacter baumannii, ATCCBAA1605, 24 h, read-out: Minimal Inhibitory Concentration, A. baumannii ATCC BAA-1605 (-) - CGTPACCIMRA
Experimental: as §1

P. aeruginosa PA14 = assay: microbe, parasite or virus in culture; settings: Pseudomonas aeruginosa, PA14, 24 h, read-out: Minimal Inhibitory Concentration, P. aeruginosa PA14 (-)
Experimental: as §1

## MKKLKIKKLKIKKLKIKKLKIKNLKIKKLKIKNLKI-OH [ATB15]
[1]
  half-maximal cytotoxic concentration (CC50): 9 to 12 µmol/L
[2]
  antibacterial activity across the panel: limited measurable activity

## MRRRGWKVRLKRRRGWKVRLMRRRGWKVRLKRRRLVLPVWA-OH [ATB9]
E. coli isolates
  MIC, E. coli: 4 µmol/L

## MKLWKIVRFLALSKGAKALRKKPVRKAAASFVKSYALWKYIRRK-OH [ATB20]
A. baumannii ATCC 19606 [3]; single dose at 10xMIC post-infection, compared to untreated control
  time for which proliferation of the infection was inhibited after treatment: up to 4 days
A. baumannii ATCC 19606 [3]; day 4, n = 6
  reduction of bacterial burden relative to untreated controls: ~ 1.5 log
A. baumannii ATCC 19606 [3]; two days after infection, n = 6
  reduction of bacterial burden relative to untreated controls: ~ 2 log
[4]
  mouse body weight: remained stable

## C[C@H]1COc2c(N3CCN(C)CC3)c(F)cc3c(=O)c(C(=O)O)cn1c23 [Levofloxacin]
E. coli AIC222
  MIC: 0.1 µM (≈ 0.0361 µg/mL)
E. coli AIC221
  MIC: 0.1 µM (≈ 0.0361 µg/mL)
[5]
  MIC: 1 µM (≈ 0.361 µg/mL)
B. subtilis ATCC 23857
  MIC: 0.1 µM (≈ 0.0361 µg/mL)
A. baumannii ATCC 19606 [6]
  MIC: 0.3 µM (≈ 0.108 µg/mL)
S. enterica ATCC 9150
  MIC: 0.1 µM (≈ 0.0361 µg/mL)
[7]
  MIC: 4 µM (≈ 1.45 µg/mL)
E. coli ATCC 11775
  MIC: 0.1 µM (≈ 0.0361 µg/mL)
K. pneumoniae ATCC 13883
  MIC: 0.1 µM (≈ 0.0361 µg/mL)
E. cloacae ATCC 13047
  MIC: 0.1 µM (≈ 0.0361 µg/mL)
E. coli K-12 BW25113
  MIC: 0.1 µM (≈ 0.0361 µg/mL)
S. aureus ATCC 12600
  MIC: 4 µM (≈ 1.45 µg/mL)
[8]
  MIC: 0.5 µM (≈ 0.181 µg/mL)
E. coli ATCC BAA-3170
  MIC: 0.1 µM (≈ 0.0361 µg/mL)
P. aeruginosa PAO1
  MIC: 4 µM (≈ 1.45 µg/mL)
[9]
  MIC: 0.1 µM (≈ 0.0361 µg/mL)
[10]
  MIC: 64 µM (≈ 23.1 µg/mL)
P. aeruginosa PA14
  MIC: 0.5 µM (≈ 0.181 µg/mL)

— article doi:10.1101/2024.03.08.584059, “AllTheBacteria: a community resource empowers biology and discovers novel peptide antibiotics” (bioRxiv, 2026)
